Measured values from PubChem BioAssay (NCI).
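Protocol summary: plate cells (96-well), add compound at 5 concentrations, incubate 48 h, interpolate endpoints linearly. The concentration for full growth arrest is given as TGI.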

Tests used:
Assay in all cases: NCI tumour cell line growth inhibition, 48 h
SK-OV-3 ovarian = tested on: SK-OV-3 ovarian
HCT-15 colon = tested on: HCT-15 colon
A549 NSCLC = tested on: A549 NSCLC
NCI-H23 lung = tested on: NCI-H23 lung
HS 578T breast = tested on: HS 578T breast
MOLT-4 leukemia = tested on: MOLT-4 leukemia
MDA-N = tested on: MDA-N
CCRF-CEM leukemia = tested on: CCRF-CEM leukemia
IGROV1 ovarian = tested on: IGROV1 ovarian
RPMI-8226 leukemia = tested on: RPMI-8226 leukemia
HOP-92 NSCLC = tested on: HOP-92 NSCLC
A498 renal = tested on: A498 renal
NCI-H460 lung = tested on: NCI-H460 lung
BT-549 breast = tested on: BT-549 breast
SNB-75 CNS = tested on: SNB-75 CNS
HOP-62 NSCLC = tested on: HOP-62 NSCLC
SF-295 CNS = tested on: SF-295 CNS
CAKI-1 renal = tested on: CAKI-1 renal
PC-3 prostate = tested on: PC-3 prostate
HCT-116 colon = tested on: HCT-116 colon
SNB-19 CNS = tested on: SNB-19 CNS
EKVX NSCLC = tested on: EKVX NSCLC
UACC-257 melanoma = tested on: UACC-257 melanoma
RXF 393 renal = tested on: RXF 393 renal
MDA-MB-231 breast = tested on: MDA-MB-231 breast
HCC-2998 colon = tested on: HCC-2998 colon
SK-MEL-2 melanoma = tested on: SK-MEL-2 melanoma
SF-268 CNS = tested on: SF-268 CNS
K-562 leukemia = tested on: K-562 leukemia
HT29 colon = tested on: HT29 colon
KM12 colon = tested on: KM12 colon
MALME-3M melanoma = tested on: MALME-3M melanoma
OVCAR-8 ovarian = tested on: OVCAR-8 ovarian
OVCAR-5 ovarian = tested on: OVCAR-5 ovarian
UACC-62 melanoma = tested on: UACC-62 melanoma
786-0 renal = tested on: 786-0 renal
M14 melanoma = tested on: M14 melanoma
TK-10 renal = tested on: TK-10 renal
MCF7 breast = tested on: MCF7 breast
DU-145 prostate = tested on: DU-145 prostate
SN12C renal = tested on: SN12C renal
HL-60(TB) leukemia = tested on: HL-60(TB) leukemia
OVCAR-3 ovarian = tested on: OVCAR-3 ovarian
COLO 205 colon = tested on: COLO 205 colon
NCI-H522 lung = tested on: NCI-H522 lung
SK-MEL-5 melanoma = tested on: SK-MEL-5 melanoma
NCI/ADR-RES ovarian = tested on: NCI/ADR-RES ovarian
SW-620 colon = tested on: SW-620 colon
OVCAR-4 ovarian = tested on: OVCAR-4 ovarian
T-47D breast = tested on: T-47D breast
SF-539 CNS = tested on: SF-539 CNS
NCI-H226 lung = tested on: NCI-H226 lung
SR leukemia = tested on: SR leukemia
MDA-MB-435 = tested on: MDA-MB-435
SK-MEL-28 melanoma = tested on: SK-MEL-28 melanoma
U251 CNS = tested on: U251 CNS
ACHN renal = tested on: ACHN renal
UO-31 renal = tested on: UO-31 renal
LOX IMVI melanoma = tested on: LOX IMVI melanoma

Work on O=C(O)c1c[nH]c2cc(OCc3ccccc3)ccc2c1=O yielded a TGI (SK-OV-3 ovarian) of 36.6 µM, a TGI (HCT-15 colon) of 36.1 µM and a TGI (A549 NSCLC) of 35.5 µM. It also gave a TGI (NCI-H23 lung) of 33.3 µM, a TGI (HS 578T breast) of 45.2 µM and a TGI (MOLT-4 leukemia) of 84 µM. It also gave a TGI (MDA-N) of 30.9 µM, a TGI (CCRF-CEM leukemia) of 53.2 µM and a TGI (IGROV1 ovarian) of 32.4 µM. The TGI (RPMI-8226 leukemia) was 64.9 µM, the TGI (HOP-92 NSCLC) was 35.1 µM and the TGI (A498 renal) was 31.4 µM. It also gave a TGI (NCI-H460 lung) of 34.5 µM, a TGI (BT-549 breast) of 32.5 µM and a TGI (SNB-75 CNS) of 31.4 µM. It also gave a TGI (HOP-62 NSCLC) of 35.9 µM, a TGI (SF-295 CNS) of 34.4 µM and a TGI (CAKI-1 renal) of 40.1 µM. For the same compound, the TGI (PC-3 prostate) was 31.2 µM, the TGI (HCT-116 colon) was 31 µM and the TGI (SNB-19 CNS) was 32.4 µM. The TGI (EKVX NSCLC) was 38.7 µM, the TGI (UACC-257 melanoma) was 50.7 µM and the TGI (RXF 393 renal) was 38.2 µM. The TGI (MDA-MB-231 breast) was 48.6 µM, the TGI (HCC-2998 colon) was 32.2 µM and the TGI (SK-MEL-2 melanoma) was 33.3 µM. The TGI (SF-268 CNS) was 29.4 µM, the TGI (K-562 leukemia) was 54.3 µM and the TGI (HT29 colon) was 33.3 µM. The TGI (KM12 colon) was 33.8 µM, the TGI (MALME-3M melanoma) was 31.7 µM and the TGI (OVCAR-8 ovarian) was 35.3 µM. For the same compound, the TGI (OVCAR-5 ovarian) was 42.1 µM, the TGI (UACC-62 melanoma) was 30.5 µM and the TGI (786-0 renal) was 32.5 µM. For the same compound, the TGI (M14 melanoma) was 31.8 µM, the TGI (TK-10 renal) was 39.6 µM and the TGI (MCF7 breast) was 39.8 µM. It also gave a TGI (DU-145 prostate) of 33.3 µM, a TGI (SN12C renal) of 32.2 µM and a TGI (HL-60(TB) leukemia) of 2.32 µM. For the same compound, the TGI (OVCAR-3 ovarian) was 35.3 µM, the TGI (COLO 205 colon) was 34.8 µM and the TGI (NCI-H522 lung) was 30.8 µM. The TGI (SK-MEL-5 melanoma) was 32 µM, the TGI (NCI/ADR-RES ovarian) was 37.8 µM and the TGI (SW-620 colon) was 40.5 µM. It also gave a TGI (OVCAR-4 ovarian) of 31.1 µM, a TGI (T-47D breast) of 38.8 µM and a TGI (SF-539 CNS) of 36.8 µM. The TGI (NCI-H226 lung) was 33.8 µM, the TGI (SR leukemia) was 53.8 µM and the TGI (MDA-MB-435) was 30 µM. For the same compound, the TGI (SK-MEL-28 melanoma) was 30.1 µM, the TGI (U251 CNS) was 36.1 µM and the TGI (ACHN renal) was 32.7 µM. It also gave a TGI (UO-31 renal) of 31.1 µM.
COc1nc2ncc([C@@H](O)[C@H](O)CO)nc2c(=O)n1C was tested, and the TGI (SK-OV-3 ovarian) was greater than 100 µM, the TGI (HCT-15 colon) was greater than 100 µM and the TGI (A549 NSCLC) was greater than 100 µM. For the same compound, the TGI (HS 578T breast) was greater than 100 µM, the TGI (MOLT-4 leukemia) was greater than 100 µM and the TGI (MDA-N) was greater than 100 µM. The TGI (CCRF-CEM leukemia) was greater than 100 µM, the TGI (IGROV1 ovarian) was greater than 100 µM and the TGI (LOX IMVI melanoma) was greater than 100 µM. For the same compound, the TGI (RPMI-8226 leukemia) was greater than 100 µM, the TGI (HOP-92 NSCLC) was greater than 100 µM and the TGI (A498 renal) was greater than 100 µM. It also gave a TGI (NCI-H460 lung) greater than 100 µM, a TGI (BT-549 breast) greater than 100 µM and a TGI (SNB-75 CNS) greater than 100 µM. The TGI (HOP-62 NSCLC) was greater than 100 µM, the TGI (SF-295 CNS) was greater than 100 µM and the TGI (CAKI-1 renal) was greater than 100 µM. It also gave a TGI (PC-3 prostate) greater than 100 µM, a TGI (HCT-116 colon) greater than 100 µM and a TGI (SNB-19 CNS) greater than 100 µM. It also gave a TGI (EKVX NSCLC) greater than 100 µM, a TGI (UACC-257 melanoma) greater than 100 µM and a TGI (RXF 393 renal) greater than 100 µM. The TGI (MDA-MB-231 breast) was greater than 100 µM, the TGI (SK-MEL-2 melanoma) was greater than 100 µM and the TGI (SF-268 CNS) was greater than 100 µM. It also gave a TGI (K-562 leukemia) greater than 100 µM, a TGI (HT29 colon) greater than 100 µM and a TGI (KM12 colon) greater than 100 µM. The TGI (MALME-3M melanoma) was greater than 100 µM, the TGI (OVCAR-8 ovarian) was greater than 100 µM and the TGI (OVCAR-5 ovarian) was greater than 100 µM. It also gave a TGI (UACC-62 melanoma) greater than 100 µM, a TGI (786-0 renal) greater than 100 µM and a TGI (M14 melanoma) greater than 100 µM. For the same compound, the TGI (TK-10 renal) was greater than 100 µM, the TGI (MCF7 breast) was greater than 100 µM and the TGI (DU-145 prostate) was greater than 100 µM. For the same compound, the TGI (SN12C renal) was greater than 100 µM, the TGI (HL-60(TB) leukemia) was greater than 100 µM and the TGI (OVCAR-3 ovarian) was greater than 100 µM. It also gave a TGI (COLO 205 colon) greater than 100 µM, a TGI (NCI-H522 lung) greater than 100 µM and a TGI (SK-MEL-5 melanoma) greater than 100 µM. It also gave a TGI (NCI/ADR-RES ovarian) greater than 100 µM, a TGI (SW-620 colon) greater than 100 µM and a TGI (OVCAR-4 ovarian) greater than 100 µM. For the same compound, the TGI (T-47D breast) was greater than 100 µM, the TGI (SF-539 CNS) was greater than 100 µM and the TGI (NCI-H226 lung) was greater than 100 µM. The TGI (SR leukemia) was greater than 100 µM, the TGI (MDA-MB-435) was greater than 100 µM and the TGI (SK-MEL-28 melanoma) was greater than 100 µM. It also gave a TGI (U251 CNS) greater than 100 µM, a TGI (ACHN renal) greater than 100 µM and a TGI (UO-31 renal) greater than 100 µM.
